Test results from article PMC10166890, “Screening for DAX1/EWS‐FLI1 functional inhibitors identified dihydroorotate dehydrogenase as a therapeutic target for Ewing's sarcoma” (Cancer Medicine, 2023).

Experiments:
DAX1 = DAX1 reporter assay (KJMGER8/pAGal9p4‐hDAX1 cells, luciferase); assay type: cell-based, human
Protocol: pAGal9‐hDAX1 and pAPPRE×10‐Luc + were transfected into KJMGER8 cells by electroporation using a Gene Pulser (Bio‐Rad Laboratories, Hercules, CA, USA), and clones stably expressing the DAX1 and luciferase reporter genes under the control of PPRE were selected. The obtained clone was termed KJMGER8/pAGal9p4‐hDAX1. KJMGER8/pAGal9p4‐hDAX1 cells (1.8 × 10^4 cells/well) were seeded in 384‐well white plates (Greiner Japan, Tokyo, Japan) and cultured in RPMI1640‐IPTSG medium containing 10 nM 17β‐estradiol (E2; Sigma‐Aldrich), dissolved in ethanol, with test compounds at concentration ranges of 0.01 to 10,000 nM or vehicle (dimethyl sulfoxide [DMSO]). The final DMSO concentration was ≤0.3%, and the ethanol concentration was 0.1%. The next day, Blight‐Glo Luciferase Assay Reagent (Promega, Madison, WI, USA) was added to the medium. The luciferase activity was measured using a TopCount NXT system (PerkinElmer, Waltham, MA, USA). IC50 values were calculated using XLfit version 4 (ID Business Solutions, Surrey, UK).
A DAX1 reporter assay system was constructed with the estrogen‐inducible Namalwa cell (KJMGER8 cell) by co‐transfection with pAGal9‐hDAX1 and pAPPRE×10‐Luc+.[18] In the obtained cell line KJMGER8/pAGal9p4‐hDAX1, DAX1 expression is induced by E2 treatment, and the expressed DAX1 increases luciferase expression. Reporter activity was increased by E2 treatment as expected (Figure S2). […] Using this DAX1 reporter assay system, small‐molecule compounds in an in‐house library were screened to obtain DAX1 inhibitors, and K‐234 was identified (Figure 1).
pAGal9-hDAX1 and pAPPRE×10-Luc+ were transfected into KJMGER8 cells by electroporation using a Gene Pulser (Bio-Rad Laboratories, Hercules, CA, USA), and clones stably expressing the DAX1 and luciferase reporter genes under the control of PPRE were selected. The obtained clone was termed KJMGER8/pAGal9p4-hDAX1. KJMGER8/pAGal9p4-hDAX1 cells (1.8×10^4 cells/well) were seeded in 384-well white plates (Greiner Japan, Tokyo, Japan) and cultured in RPMI1640-IPTSG medium containing 10 nM 17β-estradiol (E2; Sigma-Aldrich), dissolved in ethanol, with test compounds at concentration ranges of 0.01 to 10000 nM or vehicle (dimethyl sulfoxide [DMSO]). The final DMSO concentration was ≤0.3%, and the ethanol concentration was 0.1%. The next day, Blight-Glo Luciferase Assay Reagent (Promega, Madison, WI, USA) was added to the medium. The luciferase activity was measured using a TopCount NXT system (PerkinElmer, Waltham, MA, USA). IC50 values were calculated using XLfit version 4 (ID Business Solutions, Surrey, UK)

CADO‐ES1 = CADO‐ES1 xenograft in SCID mice; assay type: in vivo, mouse; conditions: 10, 30, or 100 mg/kg orally once daily
Protocol: All animal studies were performed in accordance with Standards for Proper Conduct sof Animal Experiments at Kyowa Kirin Co., Ltd., under the approval of the company's Institutional Animal Care and Use Committee. Male C.B17/Icr‐scid/scidJcl (SCID) mice (5 weeks old) were purchased from CREA Japan (Tokyo, Japan). K‐733 was suspended in 0.5% (w/v) methylcellulose 400 (MC400; FUJIFILM Wako Pure Chemical) and orally administered to mice once daily. Ewing's cells were suspended in Dulbecco's phosphate‐buffered saline (DPBS; Thermo Fisher Scientific, Waltham, MA, USA) and injected subcutaneously into the ventral side of mice at 5 × 10^6 cells/0.1 mL/mouse for A‐673 and TC‐71 and 1 × 10^7 cells/0.1 mL/mouse for CADO‐ES1 and SK‐ES‐1. In experiments using TC‐71 cells, 0.3 mg of anti‐asialo GM1 antibody (FUJIFILM Wako Pure Chemical) was injected intraperitoneally 1 day before TC‐71 injection. The tumor size and body weight were measured every 3 or 4 days. The tumor volume was calculated using the following equation: Tumor volumemm^3=DL×DS×DS×1/2, where DL and DS represent the long diameter and short diameter, respectively. The pharmacokinetic analysis of K‐733 is described in Materials and Methods S2.

DHODH [1] = molecular target: T1, DHODH (Mus musculus, UniProt O35435); test: DHODH inhibition with mouse liver mitochondria; assay type: biochemical
T1 construct: IC50 value for the mouse liver mitochondrial fraction; from tissue; host or cells: mouse liver mitochondria

DHODH [2] = molecular target: T2, DHODH (Homo sapiens, UniProt Q02127); test: DHODH inhibition assay, A‐673 mitochondria fraction (orotic acid production, LCMSMS); assay type: biochemical; conditions: read-out: IC50 for orotic acid production through DHODH
T2 construct: The mitochondria fraction was isolated from A‐673 cells using Q proteome Mitochondria Isolation kit; endogenous in cells; host or cells: A-673 cells, mitochondria fraction
Protocol: The mitochondria fraction was isolated from A‐673 cells using Q proteome Mitochondria Isolation kit (QIAGEN, Hilden, Germany). The protein concentration of the fraction was determined using the DC‐protein assay kit (Bio‐Rad Laboratories, Hercules, CA, USA) with bovine serum albumin (Sigma‐Aldrich) as the standard. […] The reaction was quenched by adding 120 μL of 3 μM 5‐fluoroorotic acid acetonitrile solution. These samples were then centrifuged at 5000 g for 5 min to precipitate proteins, and the supernatant was collected. The samples were diluted 10‐fold with 70% acetonitrile‐water and subjected to liquid chromatography with tandem mass spectrometry (LCMSMS). The analyte was then separated on a hydrophilic interaction chromatography column (PC‐HILIC; 5 μm, 4.6 mm I.D. × 50 mm; Osaka Soda, Osaka, Japan). LCMSMS detection was performed by electrospray ionization in negative ion mode.

T2 sequence (Q02127 whole entry): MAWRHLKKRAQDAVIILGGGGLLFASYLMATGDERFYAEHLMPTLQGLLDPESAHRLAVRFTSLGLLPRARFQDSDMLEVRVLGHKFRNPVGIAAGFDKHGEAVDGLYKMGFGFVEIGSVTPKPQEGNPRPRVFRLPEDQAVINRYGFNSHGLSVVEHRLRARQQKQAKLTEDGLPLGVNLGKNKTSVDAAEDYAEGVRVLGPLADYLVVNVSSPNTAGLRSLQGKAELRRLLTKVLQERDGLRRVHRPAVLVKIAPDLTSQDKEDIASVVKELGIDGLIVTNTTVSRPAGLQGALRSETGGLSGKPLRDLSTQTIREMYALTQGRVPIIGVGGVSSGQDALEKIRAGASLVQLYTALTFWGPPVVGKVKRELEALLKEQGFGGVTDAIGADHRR
T1 sequence (O35435 whole entry): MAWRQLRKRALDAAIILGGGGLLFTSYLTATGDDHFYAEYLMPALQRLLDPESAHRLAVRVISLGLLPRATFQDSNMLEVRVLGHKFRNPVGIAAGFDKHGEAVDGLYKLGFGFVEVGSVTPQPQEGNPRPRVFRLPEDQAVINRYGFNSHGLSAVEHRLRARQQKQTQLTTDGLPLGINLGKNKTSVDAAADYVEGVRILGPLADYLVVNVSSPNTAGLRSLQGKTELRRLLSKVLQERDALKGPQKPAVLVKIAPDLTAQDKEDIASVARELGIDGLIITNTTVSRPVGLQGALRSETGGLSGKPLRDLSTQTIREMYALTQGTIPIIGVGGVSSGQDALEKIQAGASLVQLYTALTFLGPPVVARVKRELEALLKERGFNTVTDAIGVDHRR

`Cc1nc(-c2ccc(C3c4[nH]c5ccc(Cl)cc5c4CCN3C(=O)Oc3ccccc3)cc2)no1` (centres unmarked) [K-733, phenyl 6‐chloro‐1‐(4‐(5‐methyl‐1,2,4‐oxadiazol‐3‐yl)phenyl)‐1,3,4,9‐tetrahydro‐2H‐pyrido[3,4‐b]indole‐2‐carboxylate] was tested, and the IC50 (DAX1; Homo sapiens, KJMGER8/pAGal9p4‐hDAX1 cells, 10 nM E2, overnight, read-out: IC50 for inhibition of DAX1 reporter activity) was 9.01 nM, the “Effect of uridine addition on inhibition of DAX1 reporter activity” value (DAX1; uridine 100 μM, overnight) was “completely abrogated” and the “Tumor growth, CADO‐ES1 xenograft” value (CADO‐ES1) was “reduced dose‐dependently”. The IC50 (DHODH [1]) was 120 nM and the IC50 (DHODH [2]) was 0.953 nM.
